Data taken from patent publication US6337334B1, “Pyrimidine derivatives” (Kowa Co., Ltd., priority 1994, dated 2002).
Where a name gives a salt, the structure may show the parent alone.

Experiments:
ETB receptor = target: T1, ETB receptor (Rattus norvegicus, UniProt P21451); experiment: Endothelin binding inhibition experiment, 125I-endothelin-1 binding assay, ETB receptor membrane sample from rat brain; conditions: 125I-endothelin-1, rat brain membranes
T1 construct: Rat brain tissue was minced, and a crude receptor membrane sample was prepared; from tissue; host or cells: rat brain crude membranes
T1 sequence (P21451 27-442): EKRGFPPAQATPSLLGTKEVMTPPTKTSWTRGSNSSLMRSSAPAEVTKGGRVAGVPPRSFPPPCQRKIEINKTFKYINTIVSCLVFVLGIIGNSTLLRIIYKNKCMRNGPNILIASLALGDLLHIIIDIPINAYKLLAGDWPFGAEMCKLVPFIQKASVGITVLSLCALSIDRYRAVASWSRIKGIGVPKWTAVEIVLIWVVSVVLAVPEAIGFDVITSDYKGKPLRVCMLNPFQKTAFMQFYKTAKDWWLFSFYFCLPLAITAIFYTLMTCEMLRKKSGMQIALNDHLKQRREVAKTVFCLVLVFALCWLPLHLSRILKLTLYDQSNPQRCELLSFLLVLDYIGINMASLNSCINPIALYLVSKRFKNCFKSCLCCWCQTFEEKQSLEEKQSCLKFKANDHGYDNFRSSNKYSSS
Description: (§1) Endothelin Binding Inhibition Experiment
(§2) The thus-obtained membrane sample (1 μl) was incubated together with ^125I-endothelin-1 (2×10^−11 M) and various concentrations of the compounds, for 2 hours at 25° C., in 250 μl in total volume of 50 mM Tris-HCl buffer (pH 7.4) containing 0.5% bovine serum albumin. The incubated mixture was filtered by use of an HVPP filters (pore size 0.45 μm, product of Milipore). The filters were washed with cold buffer A four times, and then measured with a gamma-ray counter (Aroka Autowell Gamma System ARC-251). Preparation of receptor membrane sample (ETB) from rat brain and assay of ^125I endothelin-1:
Rat brain tissue was minced, and a crude receptor membrane sample was prepared in a manner similar to that used in the aforementioned case of porcine thoracic aorta. Also, ^125I-endothelin-1 assay was performed in the same manner as described above.

ETA receptor = target: T2, ETA receptor (Sus scrofa, UniProt Q29010); experiment: Endothelin binding inhibition experiment, 125I-endothelin-1 binding assay, ETA receptor membrane samples from smooth muscles of porcine thoracic aorta; conditions: 125I-endothelin-1 2×10^−11 M, porcine thoracic aorta membranes, 2 hours at 25° C.
T2 construct: Porcine thoracic aorta which was separated from the fatty tissue and then was removed endothelium with gauze was minced, and then homogenized; from tissue; host or cells: porcine thoracic aorta smooth muscle membranes
T2 sequence (Q29010 21-427): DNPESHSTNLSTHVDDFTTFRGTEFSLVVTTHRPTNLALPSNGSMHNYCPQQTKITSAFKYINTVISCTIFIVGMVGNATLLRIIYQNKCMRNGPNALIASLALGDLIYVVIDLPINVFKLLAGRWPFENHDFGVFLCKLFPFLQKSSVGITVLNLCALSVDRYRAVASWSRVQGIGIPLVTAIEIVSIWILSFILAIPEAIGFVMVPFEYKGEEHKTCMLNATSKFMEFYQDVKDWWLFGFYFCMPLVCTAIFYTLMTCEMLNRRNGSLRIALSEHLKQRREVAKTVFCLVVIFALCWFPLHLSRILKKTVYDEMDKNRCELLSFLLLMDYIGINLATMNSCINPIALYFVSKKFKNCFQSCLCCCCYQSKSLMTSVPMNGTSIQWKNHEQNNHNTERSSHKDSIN
Description: as §1
Preparation of receptor membrane samples (ETA) from smooth muscles of porcine thoracic aorta:
Porcine thoracic aorta which was separated from the fatty tissue and then was removed endothelium with gauze was minced, and then homogenized in three times the volume of Tris-HCl buffer (pH 7.4) (buffer A) containing 0.25 M sucrose, 3 mM ethylenediaminetetraacetic acid, 5 μg/ml of aprotinin, 10 μg/ml of pepstatin A, 10 μg/ml of leupeptin, and 0.1 μM p-amidinophenyl-methanesulfonyl fluoride. After centrifugation for 30 minutes at 1,000×g, the supernatant was further centrifuged for 30 minutes at 100,000×g. The pellets were suspended in buffer A, and recentrifuged for 30 minutes at 100,000×g. The pellets were suspended in buffer A and the suspension was stored at −80° C.
^125I-Endothelin-1 Binding Assay
as §2, with “endothelin-1: […]” for “endothelin-1:”

Row | melting point [°C] | IC50 (ETB receptor) [µM] | IC50 (ETA receptor) [µM] | Compound
1 | 162 to 163 | – | – | COc1ccccc1Oc1c(NS(=O)(=O)c2ccc(C(C)(C)C)cc2)nc(-c2ncccn2)nc1OCCC(=O)Nc1ccccc1 (as salt: sodium) [Compound No. 18, N-phenyl-3-[6-(4-t-butylphenylsulfonylamino)-5-(2-methoxyphenoxy)-2-(2-pyrimidinyl)-4-pyrimidinyloxy]-propionamide]
2 | 138 to 139 | – | – | COc1ccccc1CNC(=O)CCOc1nc(-c2ncccn2)nc(NS(=O)(=O)c2ccc(C(C)(C)C)cc2)c1Oc1ccccc1OC (as salt: sodium) [Compound No. 34, N-(2-methoxybenzyl)-3-[6-(4-t-butylphenylsulfonylamino)-5-(2-methoxyphenoxy)-2-(2-pyrimidinyl)-4-pyrimidinyloxy]propionamide]
3 | 142 to 144 | – | – | CCCCCNC(=O)CCOc1nc(-c2ncccn2)nc(NS(=O)(=O)c2ccc(C(C)(C)C)cc2)c1Oc1ccccc1OC (as salt: sodium) [Compound No. 43, N-(n-pentyl)-3-[6-(4-t-butylphenylsulfonylamino)-5-(2-methoxyphenoxy)-2-(2-pyrimidinyl)-4-pyrimidinyloxy]-propionamide]
4 | 120 to 122 | – | – | COc1ccccc1NC(=O)CCOc1nc(-c2ncccn2)nc(NS(=O)(=O)c2ccc(C(C)(C)C)cc2)c1Oc1ccccc1OC (as salt: sodium) [Compound No. 48, N-(2-methoxyphenyl)-3-[6-(4-t-butylphenylsulfonylamino)-5-(2-methoxyphenoxy)-2-(2-pyrimidinyl)-4-pyrimidinyloxy]propionamide]
5 | 117 to 120 | – | – | CCNC(=O)CCOc1nc(-c2ncccn2)nc(NS(=O)(=O)c2ccc(C(C)(C)C)cc2)c1Oc1ccccc1OC (as salt: sodium) [Compound No. 49, N-ethyl-3-[6-(4-t-butylphenylsulfonylamino)-5-(2-methoxyphenoxy)-2-(2-pyrimidinyl)-4-pyrimidinyloxy]-propionamide]
6 | – | 0.8 | 9.4 | COc1ccccc1Oc1c(NS(=O)(=O)c2ccc(C(C)(C)C)cc2)nc(-c2ncccn2)nc1OCC(=O)O [Compound No. 2, [6-(4-t-butylphenyl-sulfonylamino)-5-(2-methoxyphenoxy)-2-(2-pyrimidinyl)-4-pyrimidinyloxy]acetic acid]
7 | – | 2.9 | 0.72 | CCOC(=O)CCOc1nc(-c2ncccn2)nc(NS(=O)(=O)c2ccc(C(C)(C)C)cc2)c1Oc1ccccc1OC [Compound No. 9, ethyl 3-[6-(4-t-butylphenylsulfonylamino)-5-(2-methoxyphenoxy)-2-(2-pyrimidinyl)-4-pyrimidinyloxy]propionate]
8 | – | 0.65 | 0.51 | COc1ccccc1Oc1c(NS(=O)(=O)c2ccc(C(C)(C)C)cc2)nc(-c2ncccn2)nc1OCC(=O)OCc1ccccc1 [Compound No. 10, benzyl [6-(4-t-butylphenylsulfonylamino)-5-(2-methoxyphenoxy)-2-(2-pyrimidinyl)-4-pyrimidinyloxy]acetate]
9 | – | 0.82 | 0.32 | COc1ccccc1Oc1c(NS(=O)(=O)c2ccc(C(C)(C)C)cc2)nc(-c2ncccn2)nc1OCC(=O)Oc1cccc(Cl)c1 [Compound No. 12, 3-chlorophenyl [6-(4-t-butylphenylsulfonylamino)-5-(2-methoxyphenoxy)-2-(2-pyrimidinyl)-4-pyrimidinyloxy]acetate]
10 | – | 0.0028 | 0.82 | COc1ccccc1Oc1c(NS(=O)(=O)c2ccc(C(C)(C)C)cc2)nc(-c2ncccn2)nc1OCCC(=O)NCc1ccccc1 [Compound No. 14, N-benzyl-3-[6-(4-t-butylphenylsulfonylamino)-5-(2-methoxyphenoxy)-2-(2-pyrimidinyl)-4-pyrimidinyloxy]-propionamide]
11 | – | 0.016 | 3.2 | COc1ccccc1Oc1c(NS(=O)(=O)c2ccc(C(C)(C)C)cc2)nc(-c2ncccn2)nc1OCC(=O)NCc1ccccc1 [Compound No. 15, N-benzyl-[6-(4-t-butylphenylsulfonylamino)-5-(2-methoxyphenoxy)-2-(2-pyrimidinyl)-4-pyrimidinyloxy]acetamide]
12 | – | 0.023 | 0.15 | COc1ccccc1Oc1c(NS(=O)(=O)c2ccc(C(C)(C)C)cc2)nc(-c2ncccn2)nc1OCCC(=O)Nc1ccccc1 [Compound No. 18, N-phenyl-3-[6-(4-t-butylphenylsulfonylamino)-5-(2-methoxyphenoxy)-2-(2-pyrimidinyl)-4-pyrimidinyloxy]-propionamide]
13 | – | 0.037 | 1.9 | COc1ccccc1Oc1c(NS(=O)(=O)c2ccc(C(C)(C)C)cc2)nc(-c2ncccn2)nc1OCCCC(=O)Nc1ccccc1 [Compound No. 25, N-phenyl-4-[6-(4-t-butylphenylsulfonylamino)-5-(2-methoxyphenoxy)-2-(2-pyrimidinyl)-4-pyrimidinyloxy]butyramide]
14 | – | 0.03 | 3.1 | COc1ccccc1NC(=O)CCCOc1nc(-c2ncccn2)nc(NS(=O)(=O)c2ccc(C(C)(C)C)cc2)c1Oc1ccccc1OC [Compound No. 29, N-(2-methoxyphenyl)-4-[6-(4-t-butylphenylsulfonylamino)-5-(2-methoxyphenoxy)-2-(2-pyrimidinyl)-4-pyrimidinyloxy]-butyramide]
15 | – | 0.22 | 0.39 | COc1ccccc1CNC(=O)CCOc1nc(-c2ncccn2)nc(NS(=O)(=O)c2ccc(C(C)(C)C)cc2)c1Oc1ccccc1OC [Compound No. 34, N-(2-methoxybenzyl)-3-[6-(4-t-butylphenylsulfonylamino)-5-(2-methoxyphenoxy)-2-(2-pyrimidinyl)-4-pyrimidinyloxy]propionamide]
16 | – | 0.00075 | 0.16 | COc1ccccc1NC(=O)CCOc1nc(-c2ncccn2)nc(NS(=O)(=O)c2ccc(C(C)(C)C)cc2)c1Oc1ccccc1OC [Compound No. 48, N-(2-methoxyphenyl)-3-[6-(4-t-butylphenylsulfonylamino)-5-(2-methoxyphenoxy)-2-(2-pyrimidinyl)-4-pyrimidinyloxy]propionamide]
17 | – | 0.00082 | 0.098 | COc1ccccc1Oc1c(NS(=O)(=O)c2ccc(C(C)(C)C)cc2)nc(-c2ncccn2)nc1OCCC(=O)Nc1ccccc1C(C)C [Compound No. 53, N-(2-isopropylphenyl)-3-[6-(4-t-butylphenylsulfonylamino)-5-(2-methoxyphenoxy)-2-(2-pyrimidinyl)-4-pyrimidinyloxy]propionamide]
18 | – | 0.1 | 0.0095 | COc1ccccc1Oc1c(NS(=O)(=O)c2ccc(C(C)(C)C)cc2)nc(-c2ncccn2)nc1OCCC(=O)Nc1ccccn1 [Compound No. 92, N-(2-pyridyl)-3-[6-(4-t-butylphenylsulfonylamino)-5-(2-methoxyphenoxy)-2-(2-pyrimidinyl)-4-pyrimidinyloxy]-propionamide]

Row | Compound | melting point [°C] | IC50 (ETB receptor) [µM] | IC50 (ETA receptor) [µM]
19 | N-(2-chlorophenethyl)-4-[6-(4-t-butylphenylsulfonylamino)-5-(2-methoxyphenoxy)-2-(2-pyrimidinyl)-4-pyrimidinyloxy]-butylamide [Compound No. 38] | – | 0.019 | 16.9
